The text below walks through data of patent publication US20260285855A1, “HETEROARYL DERIVATIVES AS DDRS INHIBITORS” (CHIESI FARMACEUTICI S.P.A., priority 2023, published 2026).

Where only a bound is given, the exact number is not on record here.

The target of test [1] is T1, DDR1 (Homo sapiens, UniProt Q08345).
T1 construct: purchased Carna Biosciences
As to the kind of experiment: LanthaScreen Europium Kinase Binding assay, DDR1. Conditions: 5 nM DDR1, 20 nM Kinase Tracer 178, 1 h at rt; Ki from IC50 by Cheng-Prusoff; read-out: Ki DDR1. On the procedure:
(§1) DDR1 and DDR2 binding assays were performed using Life Technologies LanthaScreen™ Europium Kinase Binding assay. […] IC50 values were determined in GraphPad Prism 7.0 software, using 4 parameter model: log (inhibitor) vs. response. IC50 values were converted in Ki using the Cheng-Prusoff equation (Ki-IC50/(1+ [Tracer]/Kd).

For test [2], the target named is T2, DDR2 (Homo sapiens, UniProt Q16832).
T2 construct: purchased Life Technologies
T2 sequence (Q16832 22-855): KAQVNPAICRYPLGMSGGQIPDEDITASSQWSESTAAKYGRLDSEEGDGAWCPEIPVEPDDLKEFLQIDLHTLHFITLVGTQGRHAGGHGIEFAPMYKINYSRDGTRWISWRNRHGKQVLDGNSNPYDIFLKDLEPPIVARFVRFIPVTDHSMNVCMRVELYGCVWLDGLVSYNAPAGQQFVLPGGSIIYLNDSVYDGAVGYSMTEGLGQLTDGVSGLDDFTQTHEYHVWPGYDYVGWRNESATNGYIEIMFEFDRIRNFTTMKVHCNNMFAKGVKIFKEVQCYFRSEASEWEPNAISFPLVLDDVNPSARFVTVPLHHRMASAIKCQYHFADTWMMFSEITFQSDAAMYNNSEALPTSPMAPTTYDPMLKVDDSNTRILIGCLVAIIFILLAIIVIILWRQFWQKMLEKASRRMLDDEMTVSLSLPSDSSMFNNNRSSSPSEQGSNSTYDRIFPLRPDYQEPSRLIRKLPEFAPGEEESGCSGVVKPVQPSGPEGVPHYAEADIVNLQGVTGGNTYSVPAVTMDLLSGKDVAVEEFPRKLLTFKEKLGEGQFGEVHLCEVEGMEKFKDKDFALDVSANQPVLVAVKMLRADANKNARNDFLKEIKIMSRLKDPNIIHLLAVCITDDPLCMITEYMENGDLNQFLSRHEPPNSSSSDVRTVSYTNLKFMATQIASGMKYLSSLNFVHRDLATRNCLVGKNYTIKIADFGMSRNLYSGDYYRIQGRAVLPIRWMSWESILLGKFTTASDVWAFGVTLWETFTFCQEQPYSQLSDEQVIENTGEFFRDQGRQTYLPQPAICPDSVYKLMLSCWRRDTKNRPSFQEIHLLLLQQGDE
Kind of test: LanthaScreen Europium Kinase Binding assay, DDR2. Conditions: 5 nM DDR2, 10 nM Kinase Tracer 178, 1 h at rt; Ki from IC50 by Cheng-Prusoff; read-out: Ki DDR2. On the procedure: as §1

T1 sequence (Q08345 19-913): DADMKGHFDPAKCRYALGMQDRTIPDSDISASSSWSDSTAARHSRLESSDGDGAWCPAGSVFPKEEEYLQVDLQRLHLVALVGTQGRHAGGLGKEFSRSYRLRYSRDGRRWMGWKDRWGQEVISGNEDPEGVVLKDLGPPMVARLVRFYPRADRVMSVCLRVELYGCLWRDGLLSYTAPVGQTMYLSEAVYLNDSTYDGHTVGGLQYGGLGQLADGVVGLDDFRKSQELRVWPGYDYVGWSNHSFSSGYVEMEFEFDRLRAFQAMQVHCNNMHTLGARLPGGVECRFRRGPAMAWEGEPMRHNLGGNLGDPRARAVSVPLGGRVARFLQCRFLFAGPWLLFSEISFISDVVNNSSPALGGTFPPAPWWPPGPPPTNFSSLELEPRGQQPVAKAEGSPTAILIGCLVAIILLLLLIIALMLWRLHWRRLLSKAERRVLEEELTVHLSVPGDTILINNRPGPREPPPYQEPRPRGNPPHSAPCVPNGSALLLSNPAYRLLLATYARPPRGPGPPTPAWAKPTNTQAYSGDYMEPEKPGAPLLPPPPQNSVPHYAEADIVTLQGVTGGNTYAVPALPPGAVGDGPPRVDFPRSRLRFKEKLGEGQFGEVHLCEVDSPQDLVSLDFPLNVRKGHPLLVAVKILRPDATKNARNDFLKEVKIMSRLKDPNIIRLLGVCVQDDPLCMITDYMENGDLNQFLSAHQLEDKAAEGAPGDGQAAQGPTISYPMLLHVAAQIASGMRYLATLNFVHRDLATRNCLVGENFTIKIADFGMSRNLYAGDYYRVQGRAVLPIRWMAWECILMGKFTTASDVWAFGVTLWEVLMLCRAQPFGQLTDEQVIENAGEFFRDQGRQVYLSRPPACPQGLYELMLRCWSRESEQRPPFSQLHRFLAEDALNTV

As to `O=C(Nc1cccc(C(F)(F)F)c1)NC1CC2(C1)CN(C(=O)c1ccnc3[nH]ncc13)C2` [Example 93, 1-(2-(1H-pyrazolo[3,4-b]pyridine-4-carbonyl)-2-azaspiro[3.3]heptan-6-yl)-3-(3-(trifluoromethyl)phenyl)urea], the Ki in test [1] and in test [2] was less than 5 nM throughout.
Turning to `CN(C(=O)Nc1cc(CO)cc(C(F)(F)F)c1)C1CC2(C1)CN(C(=O)c1cnn3ccsc13)C2` [Example 94, 3-(3-(hydroxymethyl)-5-(trifluoromethyl)phenyl)-1-methyl-1-(2-(pyrazolo[5,1-b]thiazole-7-carbonyl)-2-azaspiro[3.3]heptan-6-yl)urea], the figures for the Ki in test [1] and in test [2] were less than 5 nM and 5 to 25 nM, respectively.
On to `O=C(Nc1cccc(C(F)(F)F)c1)NC1CC2(C1)CN(C(=O)c1cnc3sccn13)C2` [Example 96, 1-(2-(imidazo[2,1-b]thiazole-5-carbonyl)-2-azaspiro[3.3]heptan-6-yl)-3-(3-(trifluoromethyl)phenyl)urea], for which the Ki in test [1] and in test [2] was less than 5 nM each time.
On to `O=C(Nc1cc(OC(F)(F)F)ccn1)NC1CC2(C1)CN(C(=O)c1cnn3ccsc13)C2` [Example 97, 1-(2-(pyrazolo[5,1-b]thiazole-7-carbonyl)-2-azaspiro[3.3]heptan-6-yl)-3-(4-(trifluoromethoxy)pyridin-2-yl)urea], for which the inhibition constant Ki in test [1] and in test [2] was less than 5 nM each time.
As to `CN(C(=O)Nc1cccc(S(F)(F)(F)(F)F)c1)C1CC2(C1)CN(C(=O)c1cnn3ccn(C)c13)C2` [Example 98, 1-methyl-1-(2-(1-methyl-1H-imidazo[1,2-b]pyrazole-7-carbonyl)-2-azaspiro[3.3]heptan-6-yl)-3-(3-(pentafluoro-16-sulfaneyl)phenyl)urea], the Ki in test [1] and in test [2] was less than 5 nM in each case.
With `Cc1cc2ncnc(C(=O)N3CC4(CC(NC(=O)Nc5cccc(C(F)(F)F)c5)C4)C3)c2s1` [Example 99, 1-(2-(6-methylthieno[3,2-d]pyrimidine-4-carbonyl)-2-azaspiro[3.3]heptan-6-yl)-3-(3-(trifluoromethyl)phenyl)urea], the Ki in test [1] and in test [2] was less than 5 nM throughout.
As for `Cn1nc(NC(=O)NC2CC3(C2)CN(C(=O)c2ncnc4ccsc24)C3)cc1C(C)(C)C` [Example 100, 1-(5-(tert-butyl)-1-methyl-1H-pyrazol-3-yl)-3-(2-(thieno[3,2-d]pyrimidine-4-carbonyl)-2-azaspiro[3.3]heptan-6-yl)urea], the figures for the Ki in test [1] and in test [2] were less than 5 nM and 5 to 25 nM, respectively.
For `O=C(Nc1cc(OC(F)(F)F)ccn1)NC1CC2(C1)CN(C(=O)c1ncnc3ccsc13)C2` [Example 101, 1-(2-(thieno[3,2-d]pyrimidine-4-carbonyl)-2-azaspiro[3.3]heptan-6-yl)-3-(4-(trifluoromethoxy)pyridin-2-yl)urea], in that order: less than 5 nM and less than 5 nM.
With `O=C(Nc1cccc(C(F)(F)F)c1)NC1CC2(C1)CN(C(=O)c1cnn3ccn(CCO)c13)C2` [Example 102, 1-(2-(1-(2-hydroxyethyl)-1H-imidazo[1,2-b]pyrazole-7-carbonyl)-2-azaspiro[3.3]heptan-6-yl)-3-(3-(trifluoromethyl)phenyl)urea], the values for the Ki in test [1] and in test [2] were less than 5 nM and 5 to 25 nM, respectively.
As to `Cn1ccn2ncc(C(=O)N3CC4(CC(NC(=O)Nc5cc(C(F)(F)F)ncn5)C4)C3)c12` [Example 103, 1-(2-(1-methyl-1H-imidazo[1,2-b]pyrazole-7-carbonyl)-2-azaspiro[3.3]heptan-6-yl)-3-(6-(trifluoromethyl)pyrimidin-4-yl)urea], the Ki in test [1] is less than 5 nM; in test [2] it was 5 to 25 nM.
On to `Cc1ccc(OC(F)(F)F)cc1NC(=O)N(C)C1CC2(C1)CN(C(=O)c1cnn3ccn(C)c13)C2` [Example 104, 1-methyl-1-(2-(1-methyl-1H-imidazo[1,2-b]pyrazole-7-carbonyl)-2-azaspiro[3.3]heptan-6-yl)-3-(2-methyl-5-(trifluoromethoxy)phenyl)urea], for which the Ki is less than 5 nM in test [1] and 5 to 25 nM in test [2].
For `CN(C(=O)Nc1cc(OC(F)(F)F)ccn1)C1CC2(C1)CN(C(=O)c1cnn3ccn(C)c13)C2` [Example 105, 1-methyl-1-(2-(1-methyl-1H-imidazo[1,2-b]pyrazole-7-carbonyl)-2-azaspiro[3.3]heptan-6-yl)-3-(4-(trifluoromethoxy)pyridin-2-yl)urea], in that order: less than 5 nM and 5 to 25 nM.
For `Cn1ccn2ncc(C(=O)N3CC4(CC(NC(=O)Nc5cc(F)cc(C(F)(F)F)c5)C4)C3)c12` [Example 106, 1-(3-fluoro-5-(trifluoromethyl)phenyl)-3-(2-(1-methyl-1H-imidazo[1,2-b]pyrazole-7-carbonyl)-2-azaspiro[3.3]heptan-6-yl)urea], in that order: less than 5 nM and less than 5 nM.
With `COc1ncc(C(F)(F)F)cc1NC(=O)NC1CC2(C1)CN(C(=O)c1cnn3ccn(C)c13)C2` [Example 107, 1-(2-methoxy-5-(trifluoromethyl)pyridin-3-yl)-3-(2-(1-methyl-1H-imidazo[1,2-b]pyrazole-7-carbonyl)-2-azaspiro[3.3]heptan-6-yl)urea], the Ki in test [1] is less than 5 nM; in test [2], 5 to 25 nM.
The matching figures for `Cn1ccn2ncc(C(=O)N3CC4(CC(NC(=O)Nc5ccc(Cl)c(C(F)(F)F)c5)C4)C3)c12` [Example 108, 1-(4-chloro-3-(trifluoromethyl)phenyl)-3-(2-(1-methyl-1H-imidazo[1,2-b]pyrazole-7-carbonyl)-2-azaspiro[3.3]heptan-6-yl)urea]: less than 5 nM and 5 to 25 nM.
For `COc1ccc(S(F)(F)(F)(F)F)cc1NC(=O)NC1CC2(C1)CN(C(=O)c1cnn3ccn(C)c13)C2` [Example 109, 1-(2-methoxy-5-(pentafluoro-16-sulfaneyl)phenyl)-3-(2-(1-methyl-1H-imidazo[1,2-b]pyrazole-7-carbonyl)-2-azaspiro[3.3]heptan-6-yl)urea], the Ki in test [1] and in test [2] was less than 5 nM throughout.
On to `O=C(Nc1cc(CO)cc(C(F)(F)F)c1)NC1CC2(C1)CN(C(=O)c1ncnc3ccsc13)C2` [Example 110, 1-(3-(hydroxymethyl)-5-(trifluoromethyl)phenyl)-3-(2-(thieno[3,2-d]pyrimidine-4-carbonyl)-2-azaspiro[3.3]heptan-6-yl)urea], for which the Ki in test [1] and in test [2] was less than 5 nM throughout.
With `CN(C(=O)Nc1cc(C#N)cc(OC(F)(F)F)c1)C1CC2(C1)CN(C(=O)c1cnn3ccn(C)c13)C2` [Example 111, 3-(3-cyano-5-(trifluoromethoxy)phenyl)-1-methyl-1-(2-(1-methyl-1H-imidazo[1,2-b]pyrazole-7-carbonyl)-2-azaspiro[3.3]heptan-6-yl)urea], the inhibition constant Ki in test [1] and in test [2] was less than 5 nM each time.
Turning to `CN(C)Cc1ccc(NC(=O)NC2CC3(C2)CN(C(=O)c2ncnc4ccsc24)C3)cc1C(F)(F)F` [Example 112, 1-(4-((dimethylamino)methyl)-3-(trifluoromethyl)phenyl)-3-(2-(thieno[3,2-d]pyrimidine-4-carbonyl)-2-azaspiro[3.3]heptan-6-yl)urea], the results for the Ki in test [1] and in test [2] were less than 5 nM and 5 to 25 nM, respectively.
`O=C(Nc1cccc(C(F)(F)F)c1)NC1CC2(C1)CN(C(=O)c1cnn3cc(CO)ccc13)C2` [Example 113, 1-(2-(6-(hydroxymethyl)pyrazolo[1,5-a]pyridine-3-carbonyl)-2-azaspiro[3.3]heptan-6-yl)-3-(3-(trifluoromethyl)phenyl)urea]: the Ki in test [1] and in test [2] was less than 5 nM in each case.
Take `CN(C(=O)Nc1cc(OC(F)(F)F)ccn1)C1CC2(C1)CN(C(=O)c1cnn3ccsc13)C2` [Example 114, 1-methyl-1-(2-(pyrazolo[5,1-b]thiazole-7-carbonyl)-2-azaspiro[3.3]heptan-6-yl)-3-(4-(trifluoromethoxy)pyridin-2-yl)urea]: the figures for the Ki in test [1] and in test [2] were less than 5 nM and 5 to 25 nM, respectively.
For the molecule `O=C(Nc1cccc(C(F)(F)F)c1)NC1CC2(C1)CN(C(=O)c1ccnc3[nH]ccc13)C2` [Example 115, 1-(2-(1H-pyrrolo[2,3-b]pyridine-4-carbonyl)-2-azaspiro[3.3]heptan-6-yl)-3-(3-(trifluoromethyl)phenyl)urea], the values for the Ki in test [1] and in test [2] were less than 5 nM and 5 to 25 nM, respectively.

A word on the Ki: it is a dissociation constant, usually derived from enzyme kinetics or from competition with a known ligand.
